The first test relates to weed or grass.
Assay: not given
The note with it: Table 1 Notes; cited from earlier work.
For the molecule `CS(=O)(=O)c1ccc(C(=O)C2C(=O)CCCC2=O)c(Cl)c1COCC(F)(F)F` [Tembotrione], the residual activity is reported as 14 days residual activity.
For the molecule `CCOC(=O)/C(Cl)=C/c1cc(N2C(=O)C3=C(CCCC3)C2=O)ccc1Cl` [Cinidon-ethyl], the “residual activity (in words)” value was “No residual activity”.
On to `COC(=O)CSc1cc(/N=c2\sc(=O)n3n2CCCC3)c(F)cc1Cl` [Fluthiacet-methyl], for which the “residual activity (in words)” value is listed as “No residual activity”.
Take `Cc1ccc(C(=O)COc2c(C(=O)c3ccc(Cl)c(C)c3Cl)c(C)nn2C)cc1` [Benzafenap]: the residual activity was 38 days residual activity.
`CC(C)N(C(=O)n1cnn(-c2ccc(Cl)cc2Cl)c1=O)c1ccc(F)cc1F` [Ipfencarbazone]: the residual activity is listed as 70 days residual activity.
In the case of `CCOC(=O)COC(=O)c1cc(Oc2ccc(C(F)(F)F)cc2Cl)ccc1[N+](=O)[O-]` [Fluoroglycofen-ethyl], the “residual activity (in words)” value is reported as “No residual activity”.
Turning to `CCCCCCCCC(=O)O.N` [Ammonium nonanoate], the “residual activity (in words)” value is reported as “Top kill, no residual activity”.
As for `Cc1c(C(=O)c2cnn(C)c2O)ccc(S(C)(=O)=O)c1C1=NOCC1` [Topramezone], the residual activity is recorded as 14 days residual activity.
As to Oxadiargyl, the “residual activity (in words)” value is given as “Pre-emergent active”.
For `COC(=O)CCNC(=O)C(C)Sc1cc(-n2c(=O)cc(C(F)(F)F)n(C)c2=O)c(F)cc1Cl` (stereo not drawn) [Tiafenacil], the “residual activity (in words)” value is “Burndown with no residual activity”.
With `CCOC(=O)C(C)OC(=O)c1cc(Oc2ccc(C(F)(F)F)cc2Cl)ccc1[N+](=O)[O-]` (stereo not drawn) [Lactofen], the residual activity result is “Very short residual activity (2-3 weeks)”.
Turning to `CCCCCOC(=O)COc1cc(N2C(=O)C3=C(CCCC3)C2=O)c(F)cc1Cl` [Flumiclorac pentyl], the “residual activity (in words)” value is on record as “No residual activity”.
Take `CCCCCCCCC(=O)O` [Pelargonic acid]: the “residual activity (in words)” value is on record as “No residual activity”.
As for `C#CCN1C(=O)C(F)(F)Oc2cc(F)c(-n3c(=O)n(C)c(=S)n(C)c3=O)cc21` [Trifludimoxazin], the residual activity entry is “Short residual activity of 40 days”.
In the case of `CC(C)=C1OC(=O)N(c2cc(OC3CCCC3)c(Cl)cc2F)C1=O` [Pentoxazone], the “residual activity (in words)” value is “No residual activity”.
In the case of `CS(=O)(=O)c1cc(C(F)(F)F)ccc1C(=O)c1cnoc1C1CC1` [Isoxaflutole], the “residual activity (in words)” value is reported as “No residual activity”.
For `CCOc1cc(Oc2ccc(C(F)(F)F)cc2Cl)ccc1[N+](=O)[O-]` [Oxyfluorfen], the residual result was “Kills shoots and roots, 30 d residual”.
Consider `CCc1cnc(C2=NC(C)(C(C)C)C(=O)N2)c(C(=O)O)c1` (stereo not drawn) [Imazethapyr], for which the “residual activity (in words)” value was “Two to three months residual”.
As to `COC(=O)c1cc(Oc2ccc(Cl)cc2Cl)ccc1[N+](=O)[O-]` [Bifenox], the “residual activity (in words)” value was “Six to eight weeks residual activity”.
Regarding `CS(=O)(=O)c1ccc(C(=O)C2=C(Sc3ccccc3)C3CCC(C3)C2=O)c(Cl)c1` (stereo not drawn) [Benzobicyclon], the residual activity is given as 14 days residual activity.
Turning to `CCOC(=O)C(Cl)Cc1cc(-n2nc(C)n(C(F)F)c2=O)c(F)cc1Cl` (stereo not drawn) [Carfentrazone-ethyl], the “residual activity (in words)” value is on record as “No residual activity”.
In the case of `Cc1cnc(C2=NC(=O)C(C)(C(C)C)N2)c(C(=O)O)c1` (stereo not drawn) [Imazapic], the “residual activity (in words)” value is reported as “Four months residual activity”.
For `c1cc[n+]2c(c1)-c1cccc[n+]1CC2` [Diquat], the “residual activity (in words)” value is “No residual activity”.
As for `CS(=O)(=O)c1ccc(C(=O)C2C(=O)CCCC2=O)c([N+](=O)[O-])c1` [Mesotrione], the residual activity result is on record as “Limited residual activity (6-15 days)”.
For the molecule `CS(=O)(=O)c1ccc(C(=O)C2C(=O)CCCC2=O)c(Cl)c1` [Sulcotrione], the “residual activity (in words)” value is “No residual activity”.
Consider `Cc1nn(C)c(OCC(=O)c2ccccc2)c1C(=O)c1ccc(Cl)cc1Cl` [Pyrazoxyfen], for which the residual activity is 4-15 days residual activity.
In the case of `C=CCOC(=O)C(C)(C)OC(=O)c1cc(-n2c(=O)cc(C(F)(F)F)n(C)c2=O)ccc1Cl` [Butafenacil], the “residual activity (in words)” value is on record as “No residual activity”.
As for `CC(C)N(C)S(=O)(=O)NC(=O)c1cc(-n2c(=O)cc(C(F)(F)F)n(C)c2=O)c(F)cc1Cl` [Saflufenacil], the “residual activity (in words)” value is recorded as “No residual activity”.
For `CC(C)C1(C)N=C(c2ncccc2C(=O)O)NC1=O` (stereo not drawn) [Imazapyr], the “residual activity (in words)” value was “Four months residual activity”.
In the case of `CC(C)Oc1cc(-n2nc(C(C)(C)C)oc2=O)c(Cl)cc1Cl` [Oxadiazon], the residual activity result is on record as “Moderate residual activity (2 months)”.
As for Capric/decanoate acid of salt thereof, the “residual activity (in words)” value is reported as “No residual activity”.
As to `O=C(O)c1cc(Oc2ccc(C(F)(F)F)cc2Cl)ccc1[N+](=O)[O-]` [Acifluorfen], the “residual activity (in words)” value is on record as “No residual activity”.
For `CCOC(=O)COc1cc(-n2ncc(C(F)(F)F)c(C)c2=O)c(F)cc1Cl` [Flufenpyr-ethyl], the “residual activity (in words)” value is on record as “No residual activity”.
As to `Nc1c([N+](=O)[O-])ccc(Oc2ccccc2)c1Cl` [Aclonifen], the “residual activity (in words)” value is given as “Moderate residual activity”.
In the case of `CCOC(=O)COc1cc(-c2nn(C)c(OC(F)F)c2Cl)c(F)cc1Cl` [Pyraflufen-ethyl], the “residual activity (in words)” value is listed as “Burndown activity with no residual”.
On to `CCCCCCCC(=O)O` [Caprylic/octanoic acid], for which the “residual activity (in words)” value is “No residual activity”.
Turning to `C#CCN1C(=O)COc2cc(F)c(N3C(=O)C4=C(CCCC4)C3=O)cc21` [Flumioxazin], the “residual activity (in words)” value was “One to two weeks residual”.
As for `CP(=O)(O)CCC(N)C(=O)O` (stereo not drawn) [Glufosinate], the “residual activity (in words)” value was “Kills shoots and roots, short residual activity”.
`CS(=O)(=O)NC(=O)c1cc(Oc2ccc(C(F)(F)F)cc2Cl)ccc1[N+](=O)[O-]` [Fomesafen]: the residual activity is on record as 12-month residual activity.

The next test relates to Crimson Clover, Annual Rye Grass, Rescue Grass. The test is described as follows: Field experiment: early burndown and herbicidal efficacy of glufosinate + diquat compositions (FIGS. 3A-3C). To be noted: burndown agent combined with glufosinate. The format is in vivo. From the text: “Herbicidal efficacy” or “herbicidal effectiveness,” as used herein, refers to any observable measure of control of weed or grass growth, which can include one or more of the actions of (1) killing, (2) inhibiting growth, reproduction or proliferation, and (3) removing, destroying, or otherwise diminishing the occurrence and activity of weeds or grasses. The herbicidal effectiveness data set forth herein report “control” as a percentage following a standard procedure in the art which reflects a visual assessment of plant mortality and growth reduction by comparison with untreated plants, made by technicians specially trained to make and record such observations. In all cases, a single technician makes all assessments of percent control within any one experiment or trial.
Various examples and comparatives examples of the weed control compositions and RTU solutions were prepared according to Table 2. The RTU solutions were applied to test fields with various types of weeds and grasses, and the burndown effect and/or the long-term efficacy of the test RTU solutions are observed and compared. Equipment, sprayer, and selected operating conditions for application of the RTU compositions to the test areas are provided in Table 3.
All field experiments were set in 1 m^2 plots replicated four times in a randomized complete block design with appropriate industry standards and untreated controls. The example compositions and comparative example compositions according to Table 2 were tested in the field experiments. […] Plots were sprayed once, and then assessed for speed to visible activity, percent (%) weed control, and percent residual control over time to determine burndown activity, speed to kill, extended control and residual pre-emergent activity.
For `CCCCCCCCC(=O)O.N` [Ammonium nonanoate], the “burndown compared to glufosinate alone” value was “enhanced burndown compared to glufosinate alone” and the “effectiveness as burndown agent, ammonium nonanoate versus Diquat” value is listed as “superior effectiveness compared to Diquat”.
On to `c1cc[n+]2c(c1)-c1cccc[n+]1CC2` [Diquat], for which the “burndown compared to glufosinate alone” value is reported as “enhanced burndown compared to glufosinate alone”.

Source of the values: patent publication US20230320362A1, “COMPOSITION AND METHOD FOR WEED AND GRASS CONTROL” (United Industries Corporation, priority 2022, published 2023).
